According to PubChem BioAssay AID248 (DTP/NCI, 2004):
“And” between values parts separate entries of the source, which are not always exact repeats. Equal values may be shown once. Toxic doses and inconclusive results are not listed. No stated cut-off is given here; in the data, active means T/C of 150% or more; inactive means T/C below 125%.

System: L1210 leukemia ip in BDF1 mice, survival T/C
Experiment: NCI In Vivo Anticancer Drug Screen. Data for tumor model L1210 Leukemia (intraperitoneal) in B6D2F1 (BDF1) mice
Conditions: endpoint: mean survival time, higher = longer survival
Summary of the method: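 Transplanted-tumor mice were given test agent; controls received vehicle only. Survival readings from the two groups were divided (treated over control).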

[1] = dose: 100.0 mg/kg/injection, schedule: Q01DX009 (ip), vehicle: Klucel (hydroxypropylcellulose) (HPC)
[2] = dose: 100.0 mg/kg/injection, schedule: Q04DX003 (ip), vehicle: Klucel (hydroxypropylcellulose) (HPC)
[3] = dose: 200.0 mg/kg/injection, schedule: Q01DX009 (ip), vehicle: Klucel (hydroxypropylcellulose) (HPC)
[4] = dose: 200.0 mg/kg/injection, schedule: Q04DX003 (ip), vehicle: Klucel (hydroxypropylcellulose) (HPC)
[5] = dose: 400.0 mg/kg/injection, schedule: Q04DX003 (ip), vehicle: Klucel (hydroxypropylcellulose) (HPC)
[6] = dose: 400.0 mg/kg/injection, schedule: Q01DX009 (ip), vehicle: Klucel (hydroxypropylcellulose) (HPC)
[7] = dose: 100.0 mg/kg/injection, schedule: Q01DX009 (ip), vehicle: saline with Tween-80
[8] = dose: 100.0 mg/kg/injection, schedule: Q04DX003 (ip), vehicle: saline with Tween-80
[9] = dose: 200.0 mg/kg/injection, schedule: Q01DX009 (ip), vehicle: saline with Tween-80
[10] = dose: 200.0 mg/kg/injection, schedule: Q04DX003 (ip), vehicle: saline with Tween-80
[11] = dose: 400.0 mg/kg/injection, schedule: Q04DX003 (ip), vehicle: saline with Tween-80
[12] = dose: 25.0 mg/kg/injection, schedule: Q01DX009 (ip), vehicle: saline
[13] = dose: 50.0 mg/kg/injection, schedule: Q01DX009 (ip), vehicle: saline
[14] = dose: 100.0 mg/kg/injection, schedule: Q01DX009 (ip), vehicle: saline
[15] = dose: 100.0 mg/kg/injection, schedule: Q04DX003 (ip), vehicle: saline
[16] = dose: 200.0 mg/kg/injection, schedule: Q01DX009 (ip), vehicle: saline
[17] = dose: 200.0 mg/kg/injection, schedule: Q04DX003 (ip), vehicle: saline
[18] = dose: 100.0 mg/kg/injection, schedule: Q01DX009 (ip), vehicle: other
[19] = dose: 200.0 mg/kg/injection, schedule: Q01DX009 (ip), vehicle: other
[20] = dose: 400.0 mg/kg/injection, schedule: Q04DX003 (ip), vehicle: saline

Measured: T/C

CN(C)c1ccc(C=O)cc1[N+](=O)[O-]
inactive: dose: 50.0 mg/kg/injection, schedule: Q01DX009 (ip), vehicle: Klucel (hydroxypropylcellulose) (HPC) 94 % of control | [1] 97 % of control | [2] 97 % of control | [3] 100 % of control | [4] 92 % of control | [5] 100 % of control

O=C(O)CNCc1ccc2c(c1)OCCO2
inactive: dose: 100.0 mg/kg/injection, schedule: Q01DX001 (ip), vehicle: Klucel (hydroxypropylcellulose) (HPC) 108 % of control | dose: 200.0 mg/kg/injection, schedule: Q01DX001 (ip), vehicle: Klucel (hydroxypropylcellulose) (HPC) 92 % of control | dose: 400.0 mg/kg/injection, schedule: Q01DX001 (ip), vehicle: Klucel (hydroxypropylcellulose) (HPC) 95 % of control

CCC(=O)c1ccc(OC(C)=O)cc1
inactive: dose: 222.0 mg/kg/injection, schedule: Q01DX Z (ip), vehicle: carboxymethylcellulose (CMC) 100 % of control | dose: 333.0 mg/kg/injection, schedule: Q01DX Z (ip), vehicle: carboxymethylcellulose (CMC) 118 % of control | dose: 500.0 mg/kg/injection, schedule: Q01DX Z (ip), vehicle: carboxymethylcellulose (CMC) 108 % of control

N#CC(C#N)=Cc1cccc(OCc2ccccc2)c1
inactive: [1] 100 % of control | [3] 91 % of control | [6] 91 % of control

C=C1CC(OC(C)=O)C2C(C)C(=O)OC2C2C1CC1OC12C (stereo not given)
inactive: dose: 100.0 mg/kg/injection, schedule: Q04DX002 (ip), vehicle: saline 92 % of control | dose: 200.0 mg/kg/injection, schedule: Q04DX002 (ip), vehicle: saline 92 % of control

CC(=O)NCC(=O)c1ccc(Cl)cc1
inactive: [7] 103 % of control | [8] 102 % of control | [9] 104 % of control | [10] 102 % of control | dose: 400.0 mg/kg/injection, schedule: Q01DX009 (ip), vehicle: saline with Tween-80 121 % of control | [11] 96 % of control

N#CCCNc1ccc(NC(=O)C(F)(F)F)cc1
inactive: [12] 92 % of control | [13] 92 % of control | [14] 94 % of control | [15] 87 % of control

Cc1[nH]c2ccccc2c1C(=O)Cc1ccc(Cl)cc1Cl
inactive: dose: 50.0 mg/kg/injection, schedule: Q01DX001 (ip), vehicle: saline 98 % of control | dose: 100.0 mg/kg/injection, schedule: Q01DX001 (ip), vehicle: saline 101 % of control | dose: 200.0 mg/kg/injection, schedule: Q01DX001 (ip), vehicle: saline 101 % of control | dose: 400.0 mg/kg/injection, schedule: Q01DX001 (ip), vehicle: saline 95 % of control

CN(C)c1ccc(C=O)c(Oc2ccccc2)c1
inactive: [1] 96 % of control | [2] 97 % of control | [3] 110 % of control | [4] 97 % of control | [6] 106 % of control | [5] 94 % of control

COc1ccc(C(=S)N(CC(C)C)c2ccccc2)cc1
inactive: [2] 94 % of control | [4] 95 % of control | [5] 94 % of control

COc1cc2c(cc1OC)CN1CCC(=O)CC1C2 (stereo not given)
inactive: dose: 100.0 mg/kg/injection, schedule: Q01DX001 (ip), vehicle: saline with Tween-80 107 % of control | dose: 200.0 mg/kg/injection, schedule: Q01DX001 (ip), vehicle: saline with Tween-80 102 % of control | dose: 400.0 mg/kg/injection, schedule: Q01DX001 (ip), vehicle: saline with Tween-80 106 % of control

CCCN([Si](C)(C)C)[Si](C)(C)C
inactive: dose: 50.0 mg/kg/injection, schedule: Q01DX009 (ip), vehicle: saline with Tween-80 100 % of control | [7] 94 % of control | [8] 99 % of control | [9] 100 % of control | [10] 106 % of control

COc1ccc(CCNC(=S)NCCc2ccc(OC)c(OC)c2)cc1OC
inactive: [12] 100 % of control | [13] 92 % of control | [14] 98 % of control | [15] 86 % of control | [16] 92 % of control | [17] 86 % of control

COc1ccc(Cc2ccccc2)c(O)c1
inactive: [18] 93 % of control | dose: 100.0 mg/kg/injection, schedule: Q04DX003 (ip), vehicle: other 99 % of control | [19] 111 % of control | dose: 200.0 mg/kg/injection, schedule: Q04DX003 (ip), vehicle: other 97 % of control | dose: 400.0 mg/kg/injection, schedule: Q04DX003 (ip), vehicle: other 91 % of control

O=C(OC1CCC(c2ccccc2)C1)c1cc([N+](=O)[O-])cc([N+](=O)[O-])c1 (stereo not given)
inactive: dose: 75.0 mg/kg/injection, schedule: Q04DX003 (ip), vehicle: other 96 % of control | dose: 150.0 mg/kg/injection, schedule: Q04DX003 (ip), vehicle: other 92 % of control | dose: 300.0 mg/kg/injection, schedule: Q04DX003 (ip), vehicle: other 87 % of control

O=C(Nc1cc(Cl)ccc1Cl)c1cccc(F)c1
inactive: [1] 92 % of control | [3] 98 % of control | [6] 98 % of control

O=c1[nH]cnc2c1cnn2-c1ccccc1
inactive: [1] 104 % of control | [3] 104 % of control | [6] 112 % of control

NC(=O)N/N=C1\CC2CCC1C2Cl (stereo not given)
inactive: dose: 75.0 mg/kg/injection, schedule: Q01DX001 (ip), vehicle: saline 100 % of control and 107 % of control | dose: 150.0 mg/kg/injection, schedule: Q01DX001 (ip), vehicle: saline 96 % of control | dose: 300.0 mg/kg/injection, schedule: Q01DX001 (ip), vehicle: saline 98 % of control and 88 % of control

O=C(N=C1C=CC(=NC(=O)OCc2ccccc2)C=C1)OCc1ccccc1
inactive: [1] 98 % of control | [2] 92 % of control | [3] 100 % of control | [4] 88 % of control | [6] 100 % of control | [5] 90 % of control

CC(=O)O[C@]1(C(C)=O)CC[C@H]2[C@@H]3CCC4=CC(=O)[C@H](C)C[C@]4(C)[C@@]3(F)[C@@H](O)C[C@@]21C
inactive: dose: 25.0 mg/kg/injection, schedule: Q01DX015 (sc), vehicle: steriod suspending solution 100 % of control | dose: 50.0 mg/kg/injection, schedule: Q01DX015 (sc), vehicle: steriod suspending solution 104 % of control | dose: 100.0 mg/kg/injection, schedule: Q01DX015 (sc), vehicle: steriod suspending solution 100 % of control | dose: 200.0 mg/kg/injection, schedule: Q01DX015 (sc), vehicle: steriod suspending solution 104 % of control and 115 % of control | dose: 400.0 mg/kg/injection, schedule: Q01DX015 (sc), vehicle: steriod suspending solution 109 % of control | dose: 800.0 mg/kg/injection, schedule: Q01DX015 (sc), vehicle: steriod suspending solution 110 % of control

CCCCCCSc1ccccn1
inactive: [15] 101 % of control | [17] 107 % of control | [20] 96 % of control

CC(C)=CC(=O)OC(=O)C=C(C)C
inactive: [18] 105 % of control | [8] 98 % of control | [19] 88 % of control | [10] 96 % of control | dose: 400.0 mg/kg/injection, schedule: Q01DX009 (ip), vehicle: other 91 % of control | [11] 89 % of control

COC(=O)c1cc(Cl)cc(C(=O)OC)n1
inactive: [15] 100 % of control | [16] 94 % of control | [17] 103 % of control | dose: 400.0 mg/kg/injection, schedule: Q01DX009 (ip), vehicle: saline 100 % of control | [20] 99 % of control

NC(=O)CN1C(=O)C2C3CCC(O3)C2C1=O (stereo not given)
inactive: dose: 25.0 mg/kg/injection, schedule: Q04DX003 (ip), vehicle: saline with Tween-80 89 % of control | dose: 50.0 mg/kg/injection, schedule: Q04DX003 (ip), vehicle: saline with Tween-80 89 % of control | [8] 96 % of control | [15] 107 % of control | [20] 95 % of control

BrCCCCCCCCCCC1(c2ccccc2)OCCO1
inactive: [1] 107 % of control | [3] 98 % of control | [6] 93 % of control
